{"source": "patent US20260272936A1", "about": "“TREATMENT OF CANCER WITH A PARG INHIBITOR” (858 Therapeutics, Inc., priority 2023, published 2026)", "key": {"[1]": {"system": "HBCx-22 breast cancer patient-derived xenograft", "assay": "HBCx-22 breast cancer PDX model", "format": "in vivo, Hsd: Athymic Nude-Foxn1nu mice", "conditions": "75 or 100 mg/kg BID, 42 days", "experimental": "The PDX models were established by subcutaneous inoculation of HBCx-22 or HBCx-34 cells into Hsd: Athymic Nude-Foxn1nu mice. Breast tumor-bearing mice received estrogen diluted in drinking water (β-oestradiol, 8.5 mg/L) from the date of tumor inoculation until the end of the study to promote optimal growth of the ER^+ cell line. Groups of 10 animals each were established by random assignment. Tumor volumes and body weights were measured twice weekly. […] Statistical analysis of end-of-study tumor volumes was performed using the Kruskal-Wallis test with Dunn's multiple comparisons test (HBCx-34) or Brown-Forsythe test with Dunnett's T3 multiple comparisons test (HBCx-22).\nCompound 1 was administered to mice orally twice daily (BID) for 42 days at a dose of 75 or 100 mg/kg based on body weight. […] Compound 1 was administered to mice orally BID for 35 days at doses of 75 or 100 mg/kg based on body weight."}, "[2]": {"system": "T025OV ovarian cancer patient-derived xenograft", "assay": "T025OV ovarian cancer PDX model", "format": "in vivo, NOG mice", "conditions": "75 mg/kg BID, 50 days", "experimental": "tissue from a treatment naïve patient with Stage 1 serous ovarian cancer was obtained from Discovery Life Sciences (Huntsville, AL, Case ID #200000835) and was expanded by subcutaneous implantation into female NOG mice. For tumor development, mice were inoculated subcutaneously on the right flank with isolated […] cells at 1×10^6 viable cells per mouse in 0.2 mL of DPBS mixed with Matrigel® Growth Factor Reduced Basement Membrane Matrix (1:1 ratio) (Corning®, Tewksbury, MA, USA, Cat #356237). Groups were established and drug treatment initiated when the mean tumor volume reached approximately 140-150 mm^3. […] For all studies, tumor volumes and body weights were measured twice weekly. […] Statistical analysis of end-of-study mean tumor volumes for the […] model was performed using an unpaired t-test with Welch's correction."}, "[3]": {"system": "OCM.109 cells", "assay": "6-day proliferation of patient-derived ovarian cancer model, nuclei count", "format": "cell-based, human", "experimental": "(§1) Ex vivo ovarian cancer models (OCMs) were established from the ascites of high-grade serous ovarian cancer patients (Coulson-Gilmer, 2021, J Exp Clin Cancer Res) and grown in vitro as 2D cell lines. OCMs were cultured in an incubator at 37° C. in 5% CO2 in OCMI media.\n(§2) Compound 1 IC50 values for inhibition of cell proliferation were determined by imaging and counting the number of nuclei after compound treatment. Cells were harvested with trypsin (Thermo Fisher Scientific, Waltham, MA, USA, Cat #25200-056) and plated in Sarstedt 96-well Cell+ Tissue Culture Plates (Thermo Fisher Scientific, Waltham, MA, USA, Cat #NC9624222) at 5,000 cells/well (OCM.109) or 10,000 cells/well (OCM.246) in 100 μL of OCMI medium and incubated overnight at 37° C., 5% CO2. The following day, 1000× Compound 1 and niraparib concentration curves were prepared by serial dilution in 100% DMSO. The 1000× concentration was diluted 1:200 into growth media to generate a 5× concentration curve in 0.5% DMSO/growth medium before addition of 25 μL of the 5× compound to the wells. Control wells received 25 μL of 0.5% DMSO in media or 10 μM of Compound 1. The plates were mixed and incubated for 6 days at 37° C., 5% CO2 before fixing and staining the cells for nuclei counting as described in Example 3.\n(§3) Four fields in each well were acquired using the DAPI channel at 10× magnification. Using high-content software (Cell Reporter Xpress), the nuclei were detected and counted. The percent proliferation after treatment was determined by normalizing the number of nuclei in the treated wells to the DMSO and 10 μM Compound 1 control wells. Concentration response curves and IC50 values for percent inhibition of proliferation were generated by non-linear regression analysis using a least squares fit of the log (inhibitor) vs. response-Variable slope (four parameters) curve using GraphPad Prism 10 software (GraphPad Software, Boston, MA, USA)."}, "[4]": {"system": "OCM.246 cells", "assay": "6-day proliferation of patient-derived ovarian cancer model, nuclei count", "format": "cell-based, human", "experimental": "as §1, §2, §3"}, "[5]": {"conditions": "Homo sapiens, 144 h, read-out: IC50 inhibition of proliferation"}}}
{"smiles": "[2H]C([2H])(c1cnn(C)c1)N1C(=O)c2cc(S(=O)(=O)NC3(C)CC3)ccc2N2C1=NC[C@H]2C", "note": "[Compound 1, (R)-1-methyl-4-((1-methyl-1H-pyrazol-4-yl)methyl-d2)-N-(1-methylcyclopropyl)-5-oxo-1,2,4,5-tetrahydroimidazo[1,2-a]quinazoline-7-sulfonamide]", "values": [{"measurement": "tolerability (body weight)", "setting": "[1]", "result": "generally well tolerated"}, {"measurement": "mean decrease in body weight", "setting": "[2]", "result": 4.6, "unit": "%"}, {"measurement": "IC50", "setting": "[3]; [5]", "result": 51, "unit": "nM"}, {"measurement": "potency better than niraparib", "setting": "[3]; OCM.109", "result": "> 80", "unit": "fold"}, {"measurement": "IC50", "setting": "[4]; [5]", "result": 162, "unit": "nM"}, {"measurement": "potency better than niraparib", "setting": "[4]; OCM.246", "result": "> 20", "unit": "fold"}]}
